Source: the NIST ThermoML archive (doi:10.1021/je501041r)

Experiment: xn = mol fraction of the nth substance listed
Details: 101 kPa, Liquid; for viscosity: Capillary tube (Ostwald / Ubbelohde) method; for mass density: Vibrating tube method

CCCCCO [pentan-1-ol] + CC(C)CC(C)(C)C
Details	mass density [kg/m3]	viscosity [mPa·s]
298.15 K, x2 = 0	810.59	3.458
298.15 K, x2 = 0.1004	794.33	2.615
298.15 K, x2 = 0.2003	778.35	1.984
298.15 K, x2 = 0.3	763.77	1.525
298.15 K, x2 = 0.4	749.96	1.189
298.15 K, x2 = 0.5	737.18	0.948
298.15 K, x2 = 0.5999	725.64	0.785
298.15 K, x2 = 0.6998	714.97	0.663
298.15 K, x2 = 0.7999	705.08	0.579
298.15 K, x2 = 0.8996	696.03	0.518
303.15 K, x2 = 0	807.89	3.007
303.15 K, x2 = 0.1004	790.55	2.291
303.15 K, x2 = 0.2003	774.49	1.758
303.15 K, x2 = 0.3	759.83	1.365
303.15 K, x2 = 0.4	745.97	1.076
303.15 K, x2 = 0.5	733.13	0.867
303.15 K, x2 = 0.5999	721.55	0.724
303.15 K, x2 = 0.6998	710.84	0.623
303.15 K, x2 = 0.7999	700.93	0.552
303.15 K, x2 = 0.8996	691.85	0.49
308.15 K, x2 = 0	804.16	2.625
308.15 K, x2 = 0.1004	786.73	2.038
308.15 K, x2 = 0.2003	770.6	1.562
308.15 K, x2 = 0.3	755.86	1.225
308.15 K, x2 = 0.4	741.94	0.977
308.15 K, x2 = 0.5	729.05	0.797
308.15 K, x2 = 0.5999	717.43	0.671
308.15 K, x2 = 0.6998	706.68	0.579
308.15 K, x2 = 0.7999	696.74	0.513
308.15 K, x2 = 0.8996	687.64	0.466
313.15 K, x2 = 0	800.4	2.317
313.15 K, x2 = 0.1004	782.88	1.806
313.15 K, x2 = 0.2003	766.66	1.403
313.15 K, x2 = 0.3	751.85	1.105
313.15 K, x2 = 0.4	737.87	0.89
313.15 K, x2 = 0.5	724.94	0.734
313.15 K, x2 = 0.5999	713.27	0.624
313.15 K, x2 = 0.6998	702.49	0.549
313.15 K, x2 = 0.7999	692.51	0.482
313.15 K, x2 = 0.8996	683.4	0.438
318.15 K, x2 = 0	796.59	2.029
318.15 K, x2 = 0.1004	778.99	1.618
318.15 K, x2 = 0.2003	762.69	1.255
318.15 K, x2 = 0.3	747.8	1.001
318.15 K, x2 = 0.4	733.76	0.815
318.15 K, x2 = 0.5	720.78	0.679
318.15 K, x2 = 0.5999	709.06	0.582
318.15 K, x2 = 0.6998	698.25	0.518
318.15 K, x2 = 0.7999	688.24	0.454
318.15 K, x2 = 0.8996	679.11	0.422
323.15 K, x2 = 0	792.75	1.795
323.15 K, x2 = 0.1004	775.05	1.443
323.15 K, x2 = 0.2003	758.67	1.131
323.15 K, x2 = 0.3	743.71	0.914
323.15 K, x2 = 0.4	729.61	0.749
323.15 K, x2 = 0.5	716.58	0.63
323.15 K, x2 = 0.5999	704.82	0.548
323.15 K, x2 = 0.6998	693.98	0.486
323.15 K, x2 = 0.7999	683.93	0.428
323.15 K, x2 = 0.8996	674.79	0.393

CC(C)CC(C)(C)C [2,2,4-trimethylpentane] + CCCO
Details	mass density [kg/m3]	viscosity [mPa·s]
298.15 K, x1 = 0.02	795.39	–
298.15 K, x1 = 0.04	790.82	–
298.15 K, x1 = 0.06	786.22	–
298.15 K, x1 = 0.1	777.82	1.518
298.15 K, x1 = 0.2	759.71	1.231
298.15 K, x1 = 0.3	744.88	1.007
298.15 K, x1 = 0.4	732.42	0.84
298.15 K, x1 = 0.4999	721.93	0.718
298.15 K, x1 = 0.5996	712.88	0.644
298.15 K, x1 = 0.6998	704.9	0.572
298.15 K, x1 = 0.7995	698.16	0.519
298.15 K, x1 = 0.9	692.36	0.491
298.15 K, x1 = 1	687.82	0.478
303.15 K, x1 = 0.02	791.36	–
303.15 K, x1 = 0.04	786.77	–
303.15 K, x1 = 0.06	782.15	–
303.15 K, x1 = 0.1	773.72	1.361
303.15 K, x1 = 0.2	755.54	1.113
303.15 K, x1 = 0.3	740.67	0.909
303.15 K, x1 = 0.4	728.17	0.769
303.15 K, x1 = 0.4999	717.66	0.664
303.15 K, x1 = 0.5996	708.61	0.585
303.15 K, x1 = 0.6998	700.62	0.531
303.15 K, x1 = 0.7995	693.9	0.488
303.15 K, x1 = 0.9	688.13	0.464
303.15 K, x1 = 1	683.68	0.453
308.15 K, x1 = 0.02	787.26	–
308.15 K, x1 = 0.04	782.66	–
308.15 K, x1 = 0.06	778.03	–
308.15 K, x1 = 0.1	769.57	1.223
308.15 K, x1 = 0.2	751.33	1.004
308.15 K, x1 = 0.3	736.41	0.831
308.15 K, x1 = 0.4	723.88	0.709
308.15 K, x1 = 0.4999	713.35	0.613
308.15 K, x1 = 0.5996	704.28	0.543
308.15 K, x1 = 0.6998	696.31	0.5
308.15 K, x1 = 0.7995	689.61	0.46
308.15 K, x1 = 0.9	683.86	0.438
308.15 K, x1 = 1	679.52	0.429
313.15 K, x1 = 0.02	783.12	–
313.15 K, x1 = 0.04	778.51	–
313.15 K, x1 = 0.06	773.86	–
313.15 K, x1 = 0.1	765.38	1.1
313.15 K, x1 = 0.2	747.08	0.92
313.15 K, x1 = 0.3	732.1	0.758
313.15 K, x1 = 0.4	719.54	0.648
313.15 K, x1 = 0.4999	708.99	0.569
313.15 K, x1 = 0.5996	699.91	0.51
313.15 K, x1 = 0.6998	691.95	0.467
313.15 K, x1 = 0.7995	685.26	0.434
313.15 K, x1 = 0.9	679.55	0.414
313.15 K, x1 = 1	675.32	0.408
318.15 K, x1 = 0.02	778.94	–
318.15 K, x1 = 0.04	774.31	–
318.15 K, x1 = 0.06	769.64	–
318.15 K, x1 = 0.1	761.14	0.994
318.15 K, x1 = 0.2	742.76	0.833
318.15 K, x1 = 0.3	727.73	0.693
318.15 K, x1 = 0.4	715.13	0.596
318.15 K, x1 = 0.4999	704.58	0.529
318.15 K, x1 = 0.5996	695.48	0.479
318.15 K, x1 = 0.6998	687.53	0.439
318.15 K, x1 = 0.7995	680.87	0.41
318.15 K, x1 = 0.9	675.2	0.393
318.15 K, x1 = 1	671.1	0.388
323.15 K, x1 = 0.02	774.7	–
323.15 K, x1 = 0.04	770.05	–
323.15 K, x1 = 0.06	765.36	–
323.15 K, x1 = 0.1	756.84	0.903
323.15 K, x1 = 0.2	738.39	0.767
323.15 K, x1 = 0.3	723.3	0.648
323.15 K, x1 = 0.4	710.67	0.554
323.15 K, x1 = 0.4999	700.11	0.491
323.15 K, x1 = 0.5996	691	0.445
323.15 K, x1 = 0.6998	683.07	0.413
323.15 K, x1 = 0.7995	676.44	0.388
323.15 K, x1 = 0.9	670.81	0.373
323.15 K, x1 = 1	666.85	0.369
